Reference: PubChem BioAssay AID1259407 (Chemical Carcinogenesis Research Information System (CCRIS), 2018)
Calls of active or inactive are those of the source. How the calls were made is not given here.

Test system: CCRIS mutagenicity, Ames/micronucleus/aberration tests
Assay: CCRIS mutagenicity studies
[1] = Test System: AMES SALMONELLA TYPHIMURIUM, Strain/Indicator: TA98, Metabolic Activation: NONE', Method: STANDARD PLATE
[2] = Test System: AMES SALMONELLA TYPHIMURIUM, Strain/Indicator: TA98, Metabolic Activation: NONE, Method: PREINCUBATION
[3] = Test System: AMES SALMONELLA TYPHIMURIUM, Strain/Indicator: TA100, Metabolic Activation: NONE, Method: STANDARD PLATE
[4] = Test System: AMES SALMONELLA TYPHIMURIUM, Strain/Indicator: TA100, Metabolic Activation: NONE, Method: PREINCUBATION
[5] = Test System: AMES SALMONELLA TYPHIMURIUM, Strain/Indicator: TA1535, Metabolic Activation: NONE, Method: PREINCUBATION

Measured: mutagenic call

O=[N+]([O-])c1ccc2ccc3cc4ccccc4c4ccc1c2c34
inactive: Test System: AMES SALMONELLA TYPHIMURIUM, Strain/Indicator: TA98(NR), Metabolic Activation: NONE, Method: STANDARD PLATE inactive; negative | Test System: CHINESE HAMSTER OVARY, Strain/Indicator: CHO-K1-BH4 (HGPRT), Metabolic Activation: NONE inactive; negative | Test System: CHO/HGPRT, Strain/Indicator: CHO-K1-BH4, Metabolic Activation: NONE inactive; negative | Test System: CHO/HGPRT, Strain/Indicator: CHO-K1-BH4, Metabolic Activation: RAT, LIVER, HEPATOCYTES inactive; negative | Test System: CHO/HGPRT, Strain/Indicator: CHO-K1-BH4, Metabolic Activation: RAT, LIVER, HEPATOCYTES, 3-METHYLCHOLANTHRENE inactive; negative | Test System: CHO/HGPRT, Strain/Indicator: CHO-K1-BH4, Metabolic Activation: RAT, LIVER, HEPATOCYTES, AROCLOR 1254 inactive; negative | Test System: CHO/HGPRT, Strain/Indicator: CHO-K1-BH4, Metabolic Activation: RAT, LIVER, S-9 inactive; negative
active: Test System: AMES SALMONELLA TYPHIMURIUM, Strain/Indicator: TA98(1,8-DNP6), Metabolic Activation: NONE active; positive | Test System: AMES SALMONELLA TYPHIMURIUM, Strain/Indicator: TA98(1,8-DNP6), Metabolic Activation: NONE, Method: STANDARD PLATE active; positive | Test System: AMES SALMONELLA TYPHIMURIUM, Strain/Indicator: TA98(1,8-DNP6), Metabolic Activation: RAT, LIVER, S-9, AROCLOR 1254 active; positive | Test System: AMES SALMONELLA TYPHIMURIUM, Strain/Indicator: TA98(NR), Metabolic Activation: NONE active; positive | Test System: AMES SALMONELLA TYPHIMURIUM, Strain/Indicator: TA98(NR), Metabolic Activation: NONE, Method: PREINCUBATION active; positive | Test System: AMES SALMONELLA TYPHIMURIUM, Strain/Indicator: TA98(NR), Metabolic Activation: RAT, LIVER, S-9, AROCLOR 1254 active; positive | Test System: AMES SALMONELLA TYPHIMURIUM, Strain/Indicator: TA98, Metabolic Activation: NONE active; positive | [1] active; positive | [2] active; positive | Test System: AMES SALMONELLA TYPHIMURIUM, Strain/Indicator: TA98, Metabolic Activation: NONE, Method: STANDARD PLATE active; positive | Test System: AMES SALMONELLA TYPHIMURIUM, Strain/Indicator: TA98, Metabolic Activation: NONE, Method: STANDARD PLATE (ANAEROBIC) active; positive | Test System: AMES SALMONELLA TYPHIMURIUM, Strain/Indicator: TA98, Metabolic Activation: RAT, LIVER, HEPATOCYTES, AROCLOR 1254 active; positive | Test System: AMES SALMONELLA TYPHIMURIUM, Strain/Indicator: TA98, Metabolic Activation: RAT, LIVER, S-9, AROCLOR 1254 active; positive | [3] active; positive | Test System: CHINESE HAMSTER OVARY, Strain/Indicator: CHO-K1-BH4 (HGPRT), Metabolic Activation: RAT, LIVER, S-9, 3-METHYLCHOLANTHRENE active; positive | Test System: CHO/HGPRT, Strain/Indicator: CHO-K1-BH4, Metabolic Activation: RAT, LIVER, S-9, 3-METHYLCHOLANTHRENE active; positive | Test System: CHO/HGPRT, Strain/Indicator: CHO-K1-BH4, Metabolic Activation: RAT, LIVER, S-9, AROCLOR 1254 active; positive

O=[N+]([O-])c1cc2cccc3c4c(c5cccc1c5c23)CCCC4
active: [1] active; positive | [3] active; positive

CCCCCCC(C)OC(=O)C[S][Sn]([CH2]CCC)([S]CC(=O)OC(C)CCCCCC)[S]CC(=O)OC(C)CCCCCC (stereo not given)
inactive: Test System: AMES SALMONELLA TYPHIMURIUM, Strain/Indicator: TA97, Metabolic Activation: HAMSTER, LIVER, S-9, AROCLOR 1254 (10 OR 30%), Method: PREINCUBATION inactive; negative | Test System: AMES SALMONELLA TYPHIMURIUM, Strain/Indicator: TA97, Metabolic Activation: NONE, Method: PREINCUBATION inactive; negative | Test System: AMES SALMONELLA TYPHIMURIUM, Strain/Indicator: TA97, Metabolic Activation: RAT, LIVER, S-9, AROCLOR 1254 (10 OR 30%), Method: PREINCUBATION inactive; negative | Test System: AMES SALMONELLA TYPHIMURIUM, Strain/Indicator: TA98, Metabolic Activation: HAMSTER, LIVER, S-9, AROCLOR 1254 (10 OR 30%), Method: PREINCUBATION inactive; negative | [2] inactive; negative | Test System: AMES SALMONELLA TYPHIMURIUM, Strain/Indicator: TA98, Metabolic Activation: RAT, LIVER, S-9, AROCLOR 1254 (10 OR 30%), Method: PREINCUBATION inactive; negative | Test System: AMES SALMONELLA TYPHIMURIUM, Strain/Indicator: TA100, Metabolic Activation: HAMSTER, LIVER, S-9, AROCLOR 1254 (10 OR 30%), Method: PREINCUBATION inactive; negative | [4] inactive; negative | Test System: AMES SALMONELLA TYPHIMURIUM, Strain/Indicator: TA100, Metabolic Activation: RAT, LIVER, S-9, AROCLOR 1254 (10 OR 30%), Method: PREINCUBATION inactive; negative | Test System: AMES SALMONELLA TYPHIMURIUM, Strain/Indicator: TA1535, Metabolic Activation: HAMSTER, LIVER, S-9, AROCLOR 1254 (10 OR 30%), Method: PREINCUBATION inactive; negative | [5] inactive; negative | Test System: AMES SALMONELLA TYPHIMURIUM, Strain/Indicator: TA1535, Metabolic Activation: RAT, LIVER, S-9, AROCLOR 1254 (10 OR 30%), Method: PREINCUBATION inactive; negative

Cc1oc(=O)oc1COC(=O)[C@@H]1N2C(=O)[C@@H](NC(=O)[C@H](N)c3ccccc3)[C@H]2SC1(C)C
inactive: [2] inactive; negative | Test System: AMES SALMONELLA TYPHIMURIUM, Strain/Indicator: TA98, Metabolic Activation: RAT, LIVER, S-9, PHENOBARBITAL AND 5,6-BENZOFLAVONE, Method: PREINCUBATION inactive; negative | [4] inactive; negative | Test System: AMES SALMONELLA TYPHIMURIUM, Strain/Indicator: TA100, Metabolic Activation: RAT, LIVER, S-9, PHENOBARBITAL AND 5,6-BENZOFLAVONE, Method: PREINCUBATION inactive; negative | [5] inactive; negative | Test System: AMES SALMONELLA TYPHIMURIUM, Strain/Indicator: TA1535, Metabolic Activation: RAT, LIVER, S-9, PHENOBARBITAL AND 5,6-BENZOFLAVONE, Method: PREINCUBATION inactive; negative | Test System: AMES SALMONELLA TYPHIMURIUM, Strain/Indicator: TA1537, Metabolic Activation: NONE, Method: PREINCUBATION inactive; negative | Test System: AMES SALMONELLA TYPHIMURIUM, Strain/Indicator: TA1537, Metabolic Activation: RAT, LIVER, S-9, PHENOBARBITAL AND 5,6-BENZOFLAVONE, Method: PREINCUBATION inactive; negative | Test System: AMES SALMONELLA TYPHIMURIUM, Strain/Indicator: TA1538, Metabolic Activation: NONE, Method: PREINCUBATION inactive; negative | Test System: AMES SALMONELLA TYPHIMURIUM, Strain/Indicator: TA1538, Metabolic Activation: RAT, LIVER, S-9, PHENOBARBITAL AND 5,6-BENZOFLAVONE, Method: PREINCUBATION inactive; negative | Test System: E. COLI, Strain/Indicator: WP2 UVRA, Metabolic Activation: NONE, Method: PREINCUBATION inactive; negative | Test System: E. COLI, Strain/Indicator: WP2 UVRA, Metabolic Activation: RAT, LIVER, S-9, AROCLOR 1254, Method: PREINCUBATION inactive; negative
